From US7351408B2 (priority 1997, dated 2008) come the findings set out here.

Common to all, as to assay type: cell-based, human
In data set [1] the test system is Jurkat cells.
Data set [2] deals with HL-60 cells.
Data set [3] deals with HeLa cells.
The subject of data set [4] is Jurkat cells. As to the kind of experiment: Normal sialic acid released by sialidase digestion, quantified by HPAEC. The source says: We therefore evaluated the effects of ManLev treatment on the amount of normal sialic acid on Jurkat cells, expecting a reduction.
In data set [5] the test system is Jurkat cells. Briefly: Cell morphology and rate of cell growth during prolonged treatment. Particulars: up to 6 weeks. The source says:
We have also determined the quantitative and physiological limits to the cell surface expression of reactive functional groups. […] At saturation, we calculated the number of ketones accessible to chemoselective ligation and flow cytometry analysis to be approximately 1.8×10^6 per cell (32). No effects on cell morphology or the rate of cell growth were observed during prolonged (up to 6 weeks) treatment with ManLev.

Turning to `CC(=O)N[C@@H]1C(O)O[C@H](CO)[C@@H](O)[C@@H]1O` (stereo partly drawn) [ManNAc, N-Acetylmannosamine, reference compound], the “effect on ketone expression resulting from ManLev treatment” value in data set [1] is “inhibited”. Further, the “increase in fluorescence above the background level (ketone expression)” value (“increase” for short) in data set [1], in data set [2] and in data set [3] was “only a background level of fluorescence” in each case.

`CC(=O)CCC(=O)N[C@H]1C(O)O[C@H](CO)[C@@H](O)[C@@H]1O` (stereo partly drawn) [GlcLev, N-levulinoyl glucosamine]: the “increase” value in data set [1] was “only background fluorescence”.

tunicamycin: the “effect on ketone expression resulting from ManLev treatment” value is “inhibited by tunicamycin in a dose-dependent fashion” in data set [1], “unaffected” in data set [2] and “unaffected” in data set [3].

Regarding `CC(=O)CCC(=O)N[C@@H]1C(O)O[C@H](CO)[C@@H](O)[C@@H]1O` (stereo partly drawn) [ManLev, N-levulinoyl mannosamine], in data set [1], the “dose dependence of ketone expression” value was “dose dependent and saturable”; the “increase” value is reported as no more than 30 fold; the “number of ketones accessible to chemoselective ligation and flow cytometry analysis” value is “approximately 1.8×10^6 per cell”. Also, in data set [2], the “increase” value is on record as no more than 30 fold. Moreover, the “increase” value in data set [3] is no more than 30 fold. The “amount of sialic acid released by sialidase digestion, lower than that from ManNAc-treated cells” value in data set [4] is recorded as “approximately 10 fold”. The “effects on cell morphology or the rate of cell growth” value in data set [5] is “No effects”.
